From paper PMC8150690, “Effects of Extraction Conditions on Banana Peel Polyphenol Oxidase Activity and Insights into Inactivation Kinetics Using Thermal and Cold Plasma Treatment” (Foods, 2021)
Each block holds one molecule with its values, some of them ahead of it.

Columns and labels:
Type in all cases: biochemical, Musa acuminata x Musa balbisiana
[1] = tested on: T1, 'Prata' banana peel polyphenol oxidase (PPO); assay: spectrophotometric initial rate, […] nm, non-linear Michaelis-Menten fit; conditions: crude extract; McIlvaine buffer pH 6.5, 30 °C; O2 co-substrate
T1 construct: native crude extract of freeze-dried peel (McIlvaine buffer pH 6.5, PVP, Triton X-100); not purified; o-diphenol oxidase activity

[2] = tested on: T1, 'Prata' banana peel polyphenol oxidase (PPO); assay: spectrophotometric, […] nm, proline-catechol adduct formation, non-linear Michaelis-Menten fit; conditions: crude extract; McIlvaine buffer pH 6.5, 30 °C; constant 50 mM L-proline as coupling agent; O2 co-substrate; read-out: apparent KM
[3] = tested on: T1, 'Prata' banana peel polyphenol oxidase (PPO); assay: spectrophotometric initial rate, […] nm, non-linear Michaelis-Menten fit; conditions: crude extract; McIlvaine buffer pH 6.5, 30 °C; O2 co-substrate; remark: listed apart in the source

Km [1]: 7.54 ± 0.51 mM
SMILES: O=C(/C=C/c1ccc(O)c(O)c1)O[C@@H]1C[C@](O)(C(=O)O)C[C@@H](O)[C@H]1O [Chlorogenic acid]

Km [2]: 4.01 mM
SMILES: Cc1ccc(O)c(O)c1 [4-methylcatechol]

SMILES: NCCc1ccc(O)c(O)c1 [Dopamine]
Km [3]: 0.94 ± 0.07 mM
